# Patent US10280163B2 (BeiGene, Ltd., priority 2015, dated 2019)
# pEC50: −log10 of the molar value. Counter-ions that a name gives are not always drawn. Like-named read-outs stand apart in the source and are kept apart here.
# What was measured:
# Recombinant IDO1 = molecular target: T1, Recombinant IDO1 (Homo sapiens, UniProt P14902); test: IDO1 enzymatic assay; format: biochemical; details: 50 nM IDO1, 1.3 mM D-tryptophan, read-out: Enzyme IC50 (nM) IDO1
# T1 construct: His tag (N); made in house; host or cells: E. coli
# Method: Recombinant IDO1 was overexpressed and purified from E. coli cells with an N-terminal His tag. IDO1 enzymatic assay was carried out using a methodology similar to described in the literature (J. Biol. Chem. (1980), 255, 1339-1345.). The reaction mixture contains 50 nM IDO1, 1.3 mM D-tryptophan, 5 mM L-ascorbic acid, 6.25 μM methylene Blue, 0.4 mg/mL catalase and compound (or DMSO) in a buffer containing 50 mM potassium phosphate pH 7.5 and 0.1% BSA. After incubation at 24° C. for 1.5 hours, absorbance of the reaction mixture was continuously read at 321 nm to monitor the formation of N′-formylkynurenine by a FULOstar OMEGA plate reader (BMG LABTECH) for 1 hour. The enzymatic activity was determined by measuring the slope of the linear absorbance increase as a function of time. The IC50s are calculated based on remaining enzyme activity in the presence of increasing concentrations of compounds.
# [1] = molecular target: T2, cellular IDO1 in HeLa cells (Homo sapiens, UniProt P14902); test: HeLa cell-based IDO1 Kyn (kynurenine) production assay; details: IFN-γ 100 ng/mL, 48 hours
# T2 construct: endogenous in cells; host or cells: HeLa cells (American Type Tissue Culture Collection), induced with human recombinant IFN-γ
# Method: HeLa Cell-Based IDO1 Kyn (Kynurenine) Production Assay:
# The inhibitory activity of IDO1 inhibitors is determined by using a colorimetric reaction to measure Kyn generated from L-Trp (L-Tryptophon) oxidation by cellular IDO1 in HeLa cells after induction of IDO1 by IFN-γ.
# Hela cells were obtained from the American Type Tissue Culture Collection and recovered in 10% FBS-containing phenol red-free DMEM medium supplemented with 0.4 mM L-Trp. Cells were plated onto a 96-well plate (100 μl/well) at 8000 cells per well. Human recombinant IFN-γ (8901SC, CST) was added to cells (final concentration 100 ng/mL) to stimulate endogenous IDO1. Compounds at different concentrations diluted in dimethylsulfoxide (DMSO) were added simultaneously with IFN-γ. Cells were kept at 37° C. in a humidified incubator supplied with 5% CO2. After 48 hours of incubation, 100 μl supernatant from each well was removed to a new plate. The protein in the medium was precipitated with the addition of 8 μl 6N trichloroacetic acid. The plate was incubated at 60° C. for 45 min and then centrifugation at 2500 rpm for 10 min to remove sediments. 80 μl supernatants were carefully removed to a new clean plate and added with an equal volume of 2% 4-(Dimethylamino) benzaldehyde (D2004, sigma) dissolved in glacial acetic acid. The absorbance at 480 nm wavelength derived from Kyn was measured using a FULOstar OMEGA plate reader (BMG LABTECH). The IC50 for each compound was derived from fitting the dose-response data to the four-parameter logistic model by using Graphpad Prism software.
# [2] = Table 1, 5-substituted imidazo[1,5-a]pyridines
# [3] = Table 2, 8-substituted imidazo[1,5-a]pyridines
# T1 sequence (P14902 whole entry): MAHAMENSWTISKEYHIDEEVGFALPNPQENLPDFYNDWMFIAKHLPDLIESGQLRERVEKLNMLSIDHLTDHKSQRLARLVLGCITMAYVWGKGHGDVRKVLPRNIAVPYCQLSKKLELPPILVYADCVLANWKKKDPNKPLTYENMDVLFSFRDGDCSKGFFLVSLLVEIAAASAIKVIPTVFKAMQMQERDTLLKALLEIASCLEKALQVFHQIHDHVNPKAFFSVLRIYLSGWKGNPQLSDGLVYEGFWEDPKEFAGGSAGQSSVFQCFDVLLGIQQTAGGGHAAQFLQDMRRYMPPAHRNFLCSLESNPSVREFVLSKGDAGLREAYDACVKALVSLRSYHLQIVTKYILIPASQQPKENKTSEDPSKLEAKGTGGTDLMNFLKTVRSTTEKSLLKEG
# T2 sequence (P14902 whole entry): as above
Compound,IC50 (Recombinant IDO1; [2]) [nM],"pEC50 [1, 2]",IC50 (Recombinant IDO1; [3]) [nM],"pEC50 [1, 3]"
"1-(7-bromo-8-chloroimidazo[1,5-a]pyridin-5-yl)-2-cyclohexylethan-1-ol [Example A147]",420,5.55,,
"OC1CCCC(C(O)c2c(C3CC3)ccc3cncn23)C1 (racemic) [Example A164a, 3-((6-Cyclopropylimidazo[1,5-a]pyridin-5-yl)(hydroxy)methyl)cyclohexan-1-ol]",71,6.22,,
"OC1CCCC(C(O)c2c(C3CC3)ccc3cncn23)C1 (racemic) [Example A164c, 3-((6-Cyclopropylimidazo[1,5-a]pyridin-5-yl)(hydroxy)methyl)cyclohexan-1-ol]",54,6.24,,
"OC(c1cccc2cncn12)C1CCCCC1 (single isomer, unassigned) [Example A001b]",11000,,,
"OC1CCC(C(O)c2c(C3CC3)ccc3cncn23)CC1 (single isomer, unassigned) [Example A142b]",31,6.51,,
"OC1CCC([C@@H](O)c2c(C3CC3)ccc3cncn23)CC1 (single isomer, unassigned) [Example A142c]",2000,< 5.00,,
"OC1CCC([C@@H](O)c2c(C3CC3)ccc3cncn23)CC1 (single isomer, unassigned) [Example A142d]",9200,< 5.00,,
"OC(c1cccc2cncn12)C1CCCC1 (centres unmarked) [Example A002, cyclopentyl(imidazo[1,5-a]pyridin-5-yl)methanol]",150,,,
"OC(c1cccc2cncn12)C1CC1 (centres unmarked) [Example A003, cyclopropyl(imidazo[1,5-a]pyridin-5-yl)methanol]",3800,,,
"C#CC(O)c1cccc2cncn12 (centres unmarked) [Example A006, 1-(imidazo[1,5-a]pyridin-5-yl)prop-2-yn-1-ol]",4600,,,
"OC(c1ccccc1)c1cccc2cncn12 (centres unmarked) [Example A007, imidazo[1,5-a]pyridin-5-yl(phenyl)methanol]",5100,,,
"OC(c1cccc2cncn12)C1CCOCC1 (centres unmarked) [Example A010, imidazo[1,5-a]pyridin-5-yl(tetrahydro-2H-pyran-4-yl)methanol]",3100,,,
"CC(C)(C)OC(=O)N1CCC(C(=O)c2cccc3cncn23)CC1 [Example A011, Tert-butyl 4-(imidazo[1,5-a]pyridine-5-carbonyl)piperidine-1-carboxylate]",> 100000,,,
"CC(C)(C)OC(=O)N1CCC(C(O)c2cccc3cncn23)CC1 (centres unmarked) [Example A012, Tert-butyl 4-(hydroxy(imidazo[1,5-a]pyridin-5-yl)methyl)piperidine-1-carboxylate]",41000,,,
"OC(c1cccc2cncn12)C1CCNCC1 (centres unmarked) [Example A013, Imidazo[1,5-a]pyridin-5-yl(piperidin-4-yl)methanol hydrochloride]",> 100000,,,
"CN1CCC(C(O)c2cccc3cncn23)CC1 (centres unmarked) [Example A014, Imidazo[1,5-a]pyridin-5-yl(1-methylpiperidin-4-yl)methanol]",> 100000,,,
"CC(O)c1cccc2cncn12 (centres unmarked) [Example A017, 1-(imidazo[1,5-a]pyridin-5-yl)ethan-1-ol]",62000,,,
"OC(c1cccc2cncn12)C1CCC1 (centres unmarked) [Example A018, cyclobutyl(imidazo[1,5-a]pyridin-5-yl)methanol]",1800,,,
"OC(Cc1ccccc1)c1cccc2cncn12 (centres unmarked) [Example A019, 1-(imidazo[1,5-a]pyridin-5-yl)-2-phenylethan-1-ol]",21000,,,
"OC(c1ccc(Br)c2cncn12)C1CCCCC1 (centres unmarked) [Example A023, (8-bromoimidazo[1,5-a]pyridin-5-yl)(cyclohexyl)methanol]",6500,,,
"OC(c1ccc(Cl)c2cncn12)C1CCCCC1 (centres unmarked) [Example A024, (8-chloroimidazo[1,5-a]pyridin-5-yl)(cyclohexyl)methanol]",3300,,,

# Continued, values first:
IC50 (Recombinant IDO1; [2]) [nM],"pEC50 [1, 2]",IC50 (Recombinant IDO1; [3]) [nM],"pEC50 [1, 3]",Compound
,,100,6.83,"OC(c1c(C2CC2)ccn2cncc12)C1CCC(c2ccccc2)CC1 (mixture of isomers) [Example B143, (7-cyclopropylimidazo[1,5-a]pyridin-8-yl)(4-phenylcyclohexyl)methanol]"
,,340,6.17,"OC(c1c([C@H]2C[C@H]2F)ccn2cncc12)C1CCCCC1 (mixture of isomers) [Example B126b, cyclohexyl(7-(cis-2-fluorocyclopropyl)imidazo [1,5-a]pyridin-8-yl)methanol]"
,,93,5.95,"OC(CC1CCCCC1)c1c([C@H]2C[C@H]2F)ccn2cncc12 (mixture of isomers) [Example B127b, 2-Cyclohexyl-1-(7-(cis-2-fluorocyclopropyl)imidazo[1,5-a]pyridin-8-yl)ethan-1-ol]"
,,100,6.74,"OC(c1c([C@H]2C[C@@H]2F)ccn2cncc12)C1CCCCC1 (mixture of isomers) [Example B128a, Cyclohexyl(7-((trans)-2-fluorocyclopropyl)imidazo[1,5-a]pyridin-8-yl)methanol]"
,,340,6.03,"OC(c1c([C@H]2C[C@H]2F)ccn2cncc12)C1CCCCC1 (relative stereo) [Example B126a, cyclohexyl(7-(cis-2-fluorocyclopropyl)imidazo [1,5-a]pyridin-8-yl)methanol]"
,,88,6.23,"OC(CC1CCCCC1)c1c([C@H]2C[C@H]2F)ccn2cncc12 (relative stereo) [Example B127a, 2-Cyclohexyl-1-(7-(cis-2-fluorocyclopropyl)imidazo[1,5-a]pyridin-8-yl)ethan-1-ol]"
,,23,6.89,"CC(C)c1ccn2cncc2c1C(O)C1CCCCC1 (single isomer, unassigned) [Example B106a]"
,,1800,< 5.00,"CC(C)c1ccn2cncc2c1C(O)C1CCCCC1 (single isomer, unassigned) [Example B106b]"
,,18,6.67,"OC(CC1CCCCC1)c1c(C2CC2)ccn2cncc12 (single isomer, unassigned) [Example B110a]"
,,4.9,< 5.00,"OC(CC1CCCCC1)c1c(C2CC2)ccn2cncc12 (single isomer, unassigned) [Example B110b]"
,,280,5.87,"OC(c1c(C2CC2)ccn2cncc12)[C@H]1CC[C@H](O)CC1 (single isomer, unassigned) [Example B119a, (trans)-4-((7-Cyclopropylimidazo[1,5-a]pyridin-8-yl)(hydroxy)methyl)cyclohexan-1-ol]"
,,5500,< 5.00,"OC(c1c(C2CC2)ccn2cncc12)[C@H]1CC[C@H](O)CC1 (single isomer, unassigned) [Example B119b, (trans)-4-((7-Cyclopropylimidazo[1,5-a]pyridin-8-yl)(hydroxy)methyl)cyclohexan-1-ol]"
,,7700,< 5.00,"OC(c1c(C2CC2)ccn2cncc12)[C@H]1CC[C@@H](O)CC1 (single isomer, unassigned) [Example B119c]"
,,110,5.52,"OC(c1c(C2CC2)ccn2cncc12)[C@H]1CC[C@@H](O)CC1 (single isomer, unassigned) [Example B119d]"
,,210,6.14,"CC(C)c1ccn2cncc2c1C(O)[C@H]1CC[C@H](O)CC1 (single isomer, unassigned) [Example B121a, (trans)-4-(Hydroxy(7-isopropylimidazo[1,5-a]pyridin-8-yl)methyl) cyclohexan-1-ol]"
,,21000,< 5.00,"CC(C)c1ccn2cncc2c1C(O)[C@H]1CC[C@H](O)CC1 (single isomer, unassigned) [Example B121b, (trans)-4-(Hydroxy(7-isopropylimidazo[1,5-a]pyridin-8-yl)methyl) cyclohexan-1-ol]"
,,110,5.78,"CC(C)c1ccn2cncc2c1[C@@H](O)[C@H]1CC[C@@H](O)CC1 (single isomer, unassigned) [Example B121c]"
,,> 100000,,"O=C(c1ccccc1)c1cccn2cncc12 [Example B003, Imidazo[1,5-a]pyridin-8-yl(phenyl)methanone]"
